Results on one molecule are retold here after paper PMC11286291, “A Light-Driven In Vitro Enzymatic Biosystem for the Synthesis of α-Farnesene from Methanol” (Biodesign Research, 2024).

In the assay the target is T1, AFS (Malus domestica, UniProt Q84LB2).
T1 construct: gene AFS1; N-terminal SUMO fusion, pET28a, E. coli BL21(DE3), Ni-NTA purified
T1 sequence (Q84LB2 1-576): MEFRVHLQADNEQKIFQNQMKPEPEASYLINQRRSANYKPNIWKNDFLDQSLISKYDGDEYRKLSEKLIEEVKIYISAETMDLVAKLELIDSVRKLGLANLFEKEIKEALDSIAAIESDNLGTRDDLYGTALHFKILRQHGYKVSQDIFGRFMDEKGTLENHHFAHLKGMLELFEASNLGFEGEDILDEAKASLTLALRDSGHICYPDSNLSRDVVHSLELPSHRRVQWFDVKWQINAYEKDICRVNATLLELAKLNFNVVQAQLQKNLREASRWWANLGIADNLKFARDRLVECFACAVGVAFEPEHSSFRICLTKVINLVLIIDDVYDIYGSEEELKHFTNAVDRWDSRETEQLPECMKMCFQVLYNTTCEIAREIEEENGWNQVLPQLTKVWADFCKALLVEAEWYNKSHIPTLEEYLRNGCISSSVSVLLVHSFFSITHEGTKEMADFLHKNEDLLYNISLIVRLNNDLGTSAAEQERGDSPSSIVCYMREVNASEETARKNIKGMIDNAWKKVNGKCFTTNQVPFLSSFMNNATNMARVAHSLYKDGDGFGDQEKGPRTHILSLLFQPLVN
Description: GC-MS of alpha-farnesene; FPP formed in situ from IPP by IDI and ISPA. Conditions: 100 mM Hepes pH 7.5, 2 mM IPP, room temperature. The format is biochemical.

`CC(C)=CCC/C(C)=C/CC/C(C)=C/COP(=O)(O)OP(=O)(O)O` [farnesyl pyrophosphate]: the “GC-MS of alpha-farnesene; FPP formed in situ from IPP by IDI and ISPA” value was “the yield of AFS was greater than that of MdF, with an α-farnesene yield”.
